Measurements: paper PMC11267282, “Ultrashort‐Peptide‐Responsive Gene Switches for Regulation of Therapeutic Protein Expression in Mammalian Cells” (Advanced Science, 2024)
Entries after “also recorded” stand apart in the source; their conditions may differ. Where a SMILES comes first, the peptide text is derived from it.

Tests used:
[1] = test system: T1D mice with HEK-XIP implants; test: Serum inflammatory cytokines (ELISA); type: in vivo, mouse; settings: four weeks after implantation, n = 5
Procedure: The concentrations of interferon gamma (IFN‐γ), interleukin‐6 (IL‐6), and tumor necrosis factor alpha (TNF‐α) in mouse serum were assessed by the use of specific enzyme‐linked immunosorbent assay (ELISA) kits. IFN‐γ levels were analyzed using the IFN gamma mouse ELISA kit (cat. no. ab282874, Abcam), IL‐6 levels were determined with the IL‐6 mouse ELISA kit (cat. no. ab100712, Abcam), and TNF‐α levels were quantified utilizing the TNF alpha mouse ELISA kit (cat. no. BMS607HS, ThermoFisher). Freund's Complete Adjuvant (cat. no.: 344289, Sigma‐Aldrich) and lipopolysaccharides (cat. no.: L2630‐10MG, Sigma‐Aldrich) were utilized to induce cytokine production as positive controls. Blood samples were collected from mice treated with adjuvant and LPS 24 hours post‐treatment. The quantification of cytokines from these groups was conducted using the same ELISA kit.

C57BL/6 mice = test: Antibody analysis for peptide immunogenicity; settings: s.c., three doses of 5 mg kg−1 at two-week intervals, with Freund's adjuvant, OD450, n = 3
Procedure: Eight‐week‐old wild‐type male mice were immunized for peptide immunogenicity assessments. Briefly, peptide solution was premixed 1:1 with Freund's adjuvant in a total volume of 400 µl by thorough vigorous shaking. Then peptide/adjuvant mixes were injected subcutaneously in 30 min at a dose of 5 mg kg^−1. Mice were immunized at 2‐week intervals. Negative controls (mock‐immunized) were also included in the study. One week after the third dose of immunization, blood was sampled for antibody analysis.
For antibody analysis, the peptides were coated on the EIA/RIA plate (cat. no. 3590, Corning Inc. Life Sciences) in carbonate coating buffer (cat. no. CB01100, ThermoFisher) at 4 °C overnight. The next day the plate was blocked with 20% nonfat milk (cat. no. A0830,1000, AppliChem Panreac) for 24 h at 4 °C, and incubated with antibodies at the indicated dilution or at 37 °C for 1 h. Next, horseradish peroxidase‐linked anti‐mouse IgG (cat. no. LNA931V, GE Healthcare, USA) was added to the plate at a dilution of 1:1000 for 1 h at 37 °C. Between each step, the plate was washed with PBS at least three times. Then, 100 µl ultra TMB substrate solution (cat. no. 34028, ThermoFisher) was added to the plate at room temperature for 15 min, followed by the addition of 50 µl of stop solution (2 M H2SO4). The OD450 was measured by a plate reader (Tecan Spark, Tecan Group Ltd., Switzerland). Mouse anti‐HA antibody (cat. no. 901523, BioLegend, USA, 1:1000 dilution) was used as a positive control.

[2] = test system: CD4 / CD8 T cells of immunized mice; test: T-cell response, intracellular cytokine staining; type: in vivo, mouse; settings: FACS intracellular cytokine staining, spleen and draining lymph nodes, n = 3
Procedure: Mice were immunized at 2‐week intervals.
Isolated lymphocytes from spleens and lymph nodes were placed in a U‐bottom 96‐well plate and resuspended in 100 µl complete RPMI‐1640 medium, which contains FBS (10% v/v), HEPES (pH 7.2∼7.5, 1% v/v, Gibco), penicillin/streptomycin (1% v/v, Gibco), sodium pyruvate (1% v/v, Gibco) and 2‐mercaptoethanol (0.1% v/v, Gibco). Cells were stimulated with 1 µM cognate peptides or with Cell Stimulation Cocktail (a cocktail of phorbol 12‐myristate 13‐acetate (PMA) and ionomycin, Invitrogen) as positive controls at 37 °C for 4 h, in the presence of 10 µM brefeldin A (MedChemExpress) to inhibit cytokine secretion. Next, the cells were washed with 150 µl FACS buffer, and centrifuged with 1,500 g for 2 min. The supernatant was discarded and the cells were blocked with anti‐CD16/32 antibody (1:100, 93, 101302, BioLegend) in 20 µl/well FACS buffer at 4 °C for 15 min. Then 20 µl/well antibody cocktail containing anti‐CD3ε (1:500, 17A2, 100306, BioLegend), anti‐CD4 (1:500, RM4‐5, 100526, BioLegend), anti‐CD8β (1:500, YTS256.7.7, 126606, BioLegend), and anti‐CD45 (1:500, S18009F, 157211, BioLegend) was added to the cell mixture for 20 min incubation at 4 °C. […] Gate margins were determined on the basis of isotype controls and fluorescence‐minus‐one controls.

[3] = test system: engineered mammalian cells; test: Resazurin-based cell viability assay; settings: 50 and 250 µmol/L, 24 h, n = 4
Procedure: Cells were incubated with resazurin (cat. no. R7017, Sigma‐Aldrich, USA) at a concentration of 50 µg ml^−1 for 2 h. Then fluorescence was assayed with a plate reader (Tecan Spark, Tecan Group Ltd., Switzerland) at excitation and emission wavelengths of 540 and 590 nm, respectively. The fluorescence intensity of non‐induced cells was set to 100%.

[4] = test system: ComREXTRA in HEK-XIP cells; test: SEAP expression by monoclonal cell line HEK-XIP / monoclonal clones; type: cell-based, Streptococcus vestibularis; settings: 24 h; for SEAP level vs non-induced (significance): peptides from human sequence BLAST (Supplementary Figure 14c,d), n = 4; for SEAP induction in HEK-XIP cells (result in words): specificity / orthogonality screening, vs non-induced control
Procedure: HEK‐293T or hMSC‐TERT cells were seeded in a 24‐well plate at a density of 5× 10^4 cells per well for 24 h. Then the cells were co‐transfected with 1000 ng of plasmid mixture containing pJH1611 (ITR‐OSTAT3‐SEAP‐P2A‐mINS‐pA:PRPBSA‐ECFP‐P2A‐PuroR‐pA‐ITR), pJH1618 (ITR‐PhCMV‐STAT3‐pA:PRPBSA‐ECFP‐P2A‐PuroR‐pA‐ITR), pJH1632 (ITR‐PSV40‐SP‐ComRK155R/F158Y/R186S/S222N/C17S‐EpoR‐IL‐6RB‐pA: PhCMV‐ZeoR‐P2A‐mRuby‐pA‐ITR) and the Sleeping Beauty transposase pJH42 (PhCMV‐SB100X‐pA)^[ [6], [44] ^] at the molar ratio of 2:10:50:6. After 24 h of transfection, the cells were transferred into the medium containing 0.5 µg ml^−1 puromycin, 5 µg ml^−1 blasticidin, and 100 µg ml^−1 of zeocin for antibiotic selection for three days. Then the polyclonal population of engineered cells was suspended in DMEM medium and separated by fluorescence‐activated cell sorting (FACS, BD FACS ARIA FUSION, BD Biosciences) using yPET (517/530), mRuby (558/605), and iRFP (690/713) fluorescence. The triple‐positive population was isolated into single cells and further cultured in 96‐well plates in medium containing the three selection antibiotics. After two weeks of clonal expansion, monoclonal cell lines were screened by the addition of XIP and the best‐in‐class cell line was selected for follow‐up experiments. Fluorescence‐based flow cytometry was performed to confirm triple‐positive fluorescence for the best‐in‐class cell line.
SEAP reporter levels in cell culture supernatants were quantified using a colorimetric assay. In brief, 20 µl of cell culture supernatant was mixed with 80 µl of PBS buffer (cat. no. 14190144, ThermoFisher) and heat‐inactivated at 65 °C for 30 min. Then 80 µl of 2x SEAP assay buffer (20 mM homoarginine, 1 mM MgCl2, 21% diethanolamine, pH 9.8) was mixed with 20 µl of substrate solution, and 100 µl of the buffer‐substrate mixture was added to 100 µl of the diluted heat‐inactivated sample. Absorbance at 405 nm was recorded using a plate reader (Tecan Spark, Tecan Group Ltd., Switzerland) for 30 min at 37 °C to determine the SEAP levels.

[5] = test system: ComREXTRA (ComR-EpoR TM-IL-6RB); test: SEAP reporter assay, ComREXTRA-based synthetic receptor, transiently transfected HEK-293T; type: cell-based, Streptococcus vestibularis; settings: IL-6 50 ng/mL or XIP 50 μmol/L
Procedure: Human embryonic kidney cells (HEK‐293T, ATCC: CRL‐11268), human telomerase‐immortalized mesenchymal stem cells (hMSC‐TERT),^[ [56] ^] human fibrosarcoma cells (HT‐1080, ATCC: CCL‐121), human cervical adenocarcinoma cells (HeLa, ATCC: CCL‐2), Chinese hamster ovary cells (CHO‐K1, ATCC: CCL‐61), baby hamster kidney cells (BHK‐21, ATCC: CCL‐10), and human liver cancer cells (Hep G2, ATCC: CRL‐11997) were cultured in Dulbecco's modified Eagle's medium (DMEM, cat. no. 52100–39, Thermo Fisher Scientific) containing 10% fetal bovine serum (FBS, cat. no. F7524, lot no. 022M3395, Sigma‐Aldrich) and 1% (v/v) streptomycin/penicillin (cat. no. L0022, Biowest). All mammalian cells were grown at 37 °C in a humidified atmosphere containing 5% CO2. For all transient transfections, 15 000 cells were seeded per well of a 96‐well plate (cat. no. 3599, Corning Inc. Life Sciences) overnight. Cells were transfected by mixing 100 ng of DNA and polyethyleneimine (PEI, 24765‐2, Polysciences) in a ratio of 1:4. […] The cell density was calculated using a cell counter (CellDrop BF Brightfield Cell Counter, DeNovix Inc.)
SEAP reporter levels in cell culture supernatants were quantified using a colorimetric assay. […] Absorbance at 405 nm was recorded using a plate reader (Tecan Spark, Tecan Group Ltd., Switzerland) for 30 min at 37 °C to determine the SEAP levels.

## CC(C)[C@H](N)C(=O)N1CCC[C@H]1C(=O)N[C@@H](Cc1ccccc1)C(=O)N[C@@H](Cc1ccccc1)C(=O)N[C@@H](Cc1ccc(O)cc1)C(=O)N[C@@H](Cc1ccc(O)cc1)C(=O)O [ID3] (H-VPFFYY-OH)
[1]; vs non-induced
  Serum IFN-γ (significance): ns
  Serum TNF-α (significance): ns
[1]; undetectable
  Serum IL-6: Below 0.82 pg/ml
C57BL/6 mice
  Antibody response: no detectable antibodies’ response
C57BL/6 mice; listed as XIP_ID3
  Antibody response: ns
[2]
  Peptide-specific T-cell response: no peptide‐specific T‐cell response was detected
[3]
  HEK-XIP cell viability: ns

## CC[C@H](C)[C@H](NC(=O)[C@H](CCSC)NC(=O)[C@H](Cc1ccccc1)NC(=O)[C@H](Cc1ccc(O)cc1)NC(=O)[C@@H]1CCCN1C(=O)[C@@H](N)C(C)C)C(=O)N[C@@H](Cc1ccc(O)cc1)C(=O)N[C@@H](Cc1ccc(O)cc1)C(=O)O [RE10] (H-VPYFMIYY-OH)
[3]
  HEK-XIP cell viability: ns

## CSCC[C@H](NC(=O)[C@H](Cc1ccccc1)NC(=O)[C@H](Cc1ccc(O)cc1)NC(=O)[C@@H]1CCCN1C(=O)[C@H](C)N)C(=O)NCC(=O)N[C@@H](Cc1ccc(O)cc1)C(=O)N[C@@H](Cc1ccc(O)cc1)C(=O)O [RE12] (H-APYFMGYY-OH)
[3]
  HEK-XIP cell viability: ns

## APFFYY [Align19_APFFYY, short peptide based on conserved human motif]
[4]
  SEAP level vs non-induced (significance): ns

## APYFMIYY [RE11]
[3]
  HEK-XIP cell viability: ns

## BAM8‐22 [reference compound]
[4]
  SEAP induction in HEK-XIP cells (result in words): none of them displayed inducing activity

## C peptide [reference compound]
[4]
  SEAP induction in HEK-XIP cells (result in words): none of them displayed inducing activity

## DPFFYY [Align18_DPFFYY, short peptide based on conserved human motif]
[4]
  SEAP level vs non-induced (significance): ns

## LPFFMIL [Align10-13_LPFFMIL, short peptide based on conserved human motif]
[4]
  SEAP level vs non-induced (significance): ns

## PPFFYY [Align14/20_PPFFYY, short peptide based on conserved human motif]
[4]
  SEAP level vs non-induced (significance): ns

## RAPKFMIY [Align14_RAPKFMIY, short peptide based on conserved human motif]
[4]
  SEAP level vs non-induced (significance): ns

## RPFFYY [Align10-12_RPFFYY, short peptide based on conserved human motif]
[4]
  SEAP level vs non-induced (significance): ns

## RPFFYYYY [Align3-4_RPFFYYYY, short peptide based on conserved human motif]
[4]
  SEAP level vs non-induced (significance): ns

## RPFHFMIY [Align15-20_RPFHFMIY, short peptide based on conserved human motif]
[4]
  SEAP level vs non-induced (significance): ns

## VPFFMIIC [Align1-9_VPFFMIIC, short peptide based on conserved human motif]
[4]
  SEAP level vs non-induced (significance): ns

## VPFFMYY [ID1]
[4]
  SEAP induction in HEK-XIP cells (result in words): significant fold inductions

## VPFFYYYY [Align1-2_VPFFYYYY, short peptide based on conserved human motif]
[4]
  SEAP level vs non-induced (significance): ns

## VPFYYY [Align8-9/17_VPFYYY, short peptide based on conserved human motif]
[4]
  SEAP level vs non-induced (significance): ns

## VPFYYYY [Align5-7_VPFYYYY, short peptide based on conserved human motif]
[4]
  SEAP level vs non-induced (significance): ns

## VPYFYY [Align16_VPYFYY, short peptide based on conserved human motif]
[4]
  SEAP level vs non-induced (significance): ns

## VPYFYYY [Align15_VPYFYYY, short peptide based on conserved human motif]
[4]
  SEAP level vs non-induced (significance): ns

## interleukin 6 [IL-6]
[5]; n = 4
  SEAP induction of XIPEXTRA system: ns
[5]; n = 4, listed as IL‐6
  SEAP induction of XIPEXTRA system: no apparent induction; also recorded: no detectable activation
